From publication PMC11349198, “The activation cascade of the broad-spectrum antiviral bemnifosbuvir characterized at atomic resolution” (PLOS Biology, 2024) come the findings set out here.

In test [1] the target is T1, ADALP1 (Homo sapiens, UniProt Q6DHV7).
T1 construct: gene MAPDA; N-terminal 6xHis with TEV site, tag cut; E. coli; monomer; Zn; crystals grown with trace alpha-chymotrypsin
T1 sequence (Q6DHV7 1-355): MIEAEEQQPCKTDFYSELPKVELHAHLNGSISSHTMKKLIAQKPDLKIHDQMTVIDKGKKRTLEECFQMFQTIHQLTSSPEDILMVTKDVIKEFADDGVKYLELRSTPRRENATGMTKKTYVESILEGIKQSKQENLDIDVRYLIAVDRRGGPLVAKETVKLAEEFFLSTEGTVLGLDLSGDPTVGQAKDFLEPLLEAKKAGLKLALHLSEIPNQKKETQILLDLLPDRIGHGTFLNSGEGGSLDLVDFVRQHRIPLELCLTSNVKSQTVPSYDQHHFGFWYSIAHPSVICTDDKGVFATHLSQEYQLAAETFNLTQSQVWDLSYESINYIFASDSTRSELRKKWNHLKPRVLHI
The test is described as follows: X-ray crystal structure, […] Å. Type of test: binding. The note with it: co-crystallized with AT-8003 (10 mM), pH 5.3 to 6.3; Zn2+; active site.

Test [2] has as its target T2, HINT1 (Homo sapiens, UniProt P49773).
T2 construct: N-terminal 6xHis with TEV site, tag cut; E. coli; homodimer, 126 residues visible
Kind of test: ITC. Type of test: binding. To be noted: 1-site model.

T2 sequence (P49773 whole entry): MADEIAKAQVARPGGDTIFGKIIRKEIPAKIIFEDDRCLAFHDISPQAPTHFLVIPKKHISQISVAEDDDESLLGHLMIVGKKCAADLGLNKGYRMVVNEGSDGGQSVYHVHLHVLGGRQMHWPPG

As to `C[C@@]1(F)[C@H](O)[C@@H](COP(=O)(O)O)O[C@H]1n1cnc2c(=O)[nH]c(N)nc21` [AT-8001], in test [1], the “X-ray crystal structure, 2.44 Å” value was “the product AT-8001 was found bound at the active site”.
As for `Nc1ncnc2c1ncn2[C@@H]1O[C@H](COP(=O)(O)O)[C@@H](O)[C@H]1O` [AMP], in test [2], the Ka is 1.7 10^4.
